Each structure is given as a SMILES string. Read-outs that look alike come from different tables or passages of the source.

Data set [1] concerns pSTAT3. The note with it: read-out: IC50 inhibition of cytokine-induced pSTAT3 levels; cited from earlier work.
Data set [2] deals with T1, STAT3 (Homo sapiens, UniProt P40763). On the set-up: method as in PMID 17114005. Conditions: read-out: IC50 inhibition of STAT3 binding to pY-peptide; cited from earlier work.
In data set [3] the target is T1, STAT3. Set-up: method as in PMID 24308725. The note with it: read-out: IC50 inhibition of STAT3 in a luciferase reporter assay; cited from earlier work.
The test system of data set [4] is tumor cells. Conditions: read-out: IC50 killing of tumor cells; cited from earlier work.
The subject of data set [5] is UM-SCC-17B cells. Description: Anchorage dependent growth (MTT). Type of data set: cell-based. The note with it: Homo sapiens, 48 hrs. As to the method: GAPDH-normalized pSTAT3 or pSTAT1 values were divided by that for untreated cells and expressed in percentage. These values were plotted as a function of Log [M] compound, and IC50 values calculated using GraphPad. […] Viable cells quantitated using MTT. Relative % viability was measured by (viability after any treatment ÷ viability of untreated cells × 100) and plotted as a function of Log [M] […] C. […] Representative curves are shown.
Cells were cultured in triplicates in complete DMEM ± drug, in ultra-low attachment 96 well plates for 72 hrs or cell-culture treated plates for 48 hrs and viable cells were quantitated using MTT. Optical density (OD) was measured at 590 nm using a 96-well multi-scanner (EL-800 universal microplate reader, BioTek Inc, VT, USA). Relative % viability (viability after any treatment ÷ viability of untreated cells × 100) was plotted along Y-axis. At least 2 replicates experiments were performed and were used for IC50 calculation using GraphPad software.

Data set [6] deals with pSTAT5. Description: Phosphoflow, G-CSF-induced pSTAT5 in Kasumi-1 cells. Type of data set: cell-based. The note with it: mean, n ≥ 2, read-out: Ligand Induced Phosphorylation (Phosphoflow) pSTAT5 (G-CSF) IC50. As to the method:
(§1) Phosphoflow analysis was done as described in Xu et al. Briefly, Kasumi-1 cells, were serum-starved, pre-treated with compound or DMSO (1 hour, RT) and then stimulated with 20 μl of GCSF (10 ng/ml) for 15 minutes at 37°C. The cells were then permeabilized and stained with Alexa647-pSTAT3, Alexa488-pSTAT5 and PE-pSTAT1 antibodies and analyzed using the BD LSR2. FCS files were exported and uploaded to Cytobank for determination of phosphoproteins as earlier. Gating was done on live, single cells and then gates selected for positive ligand-activated pSTAT3 and pSTAT1. IC50 values were calculated using the GraphPad Prism.

In data set [7] the test system is MB-MDA-468. Conditions: MB-MDA-468 in vitro; read-out: Apoptosis EC50; cited from earlier work.
For data set [8], the target named is T2, pSTAT1 (Tyr-701) (Homo sapiens, UniProt P42224).
T2 construct: endogenous in cells; host or cells: Kasumi-1
T2 sequence (P42224 1-750): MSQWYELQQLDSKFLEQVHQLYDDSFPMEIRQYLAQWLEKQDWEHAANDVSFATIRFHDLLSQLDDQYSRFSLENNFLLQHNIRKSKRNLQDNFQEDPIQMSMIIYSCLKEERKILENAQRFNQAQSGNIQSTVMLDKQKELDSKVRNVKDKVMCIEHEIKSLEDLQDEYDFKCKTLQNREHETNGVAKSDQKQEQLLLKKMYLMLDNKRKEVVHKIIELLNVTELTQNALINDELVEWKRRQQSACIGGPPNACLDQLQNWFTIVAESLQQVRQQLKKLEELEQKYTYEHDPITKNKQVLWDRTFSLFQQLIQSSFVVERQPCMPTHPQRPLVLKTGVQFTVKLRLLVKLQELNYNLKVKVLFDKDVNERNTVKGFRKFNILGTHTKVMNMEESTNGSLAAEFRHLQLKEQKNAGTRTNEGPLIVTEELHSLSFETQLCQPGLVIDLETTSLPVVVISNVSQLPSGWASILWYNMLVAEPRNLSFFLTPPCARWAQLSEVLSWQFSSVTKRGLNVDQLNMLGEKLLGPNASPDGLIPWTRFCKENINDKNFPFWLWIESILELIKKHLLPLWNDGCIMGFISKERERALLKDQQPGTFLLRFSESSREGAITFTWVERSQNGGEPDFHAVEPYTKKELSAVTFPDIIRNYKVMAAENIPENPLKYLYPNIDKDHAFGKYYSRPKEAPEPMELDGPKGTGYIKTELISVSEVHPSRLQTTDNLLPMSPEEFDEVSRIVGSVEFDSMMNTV
Description: Luminex bead-based assay, G-CSF-induced pSTAT1 in Kasumi-1 cells. In kind it is cell-based. The note with it: Figure 2D, Kasumi-1, G-CSF; read-out: Luminex pSTAT1 (Tyr-701) IC50, representative experiment. As to the method:
The equilibrium binding levels obtained ± compound were normalized (resonance obtained in the presence of compound ÷ the resonance obtained in the absence of compound × 100) and plotted against Log [nM] […] B. Inhibition of ligand-stimulated STAT phosphorylation, measured by phosphoflow. Serum-starved (1 hour) Kasumi-1 cells, pre-incubated with compound/DMSO (1 hour), were treated with G-CSF (10 ng/ml, 15 min, left two panels) or IFN-γ (10ng/ml, 15 min, right panel). Cells were permeabilized and stained with Alexa647-pSTAT3, and PE-pSTAT1 antibodies and analyzed on BD LSR2. FCS files were uploaded to Cytobank for pSTAT3 and pSTAT1 quantitation. Histograms depicting pSTAT3 and pSTAT1 levels are shown. C. Mean fluorescence (pSTAT3/1) levels were plotted as function the Log [M] compound, and IC50 calculated using GraphPad. […] D. Inhibition of ligand-stimulated STAT phosphorylation, measured by Luminex. Serum-starved (1 hour) Kasumi-1 cells, pre-incubated with compound/DMSO (0/0.1/0.3/1/3/10/100 μM, 1 hour), were treated with G-CSF (10 ng/ml, 15′). Total protein extracts of cells were assayed for pSTAT3, pSTAT1, and GAPDH levels by Luminex. […] These values were plotted as a function of Log [M] compound, and IC50 values calculated using GraphPad. […]
(§2) for analysis as described below. were determined by plotting % maximum response as a 3-D pharmacophore generation function of log concentration of compound and fitting the Each molecular chemical feature, including experimental points to a competitive binding model using hydrogen bond donor, hydrogen bond acceptor, positive a four parameter logistic equation: R = Rhigh − (Rhigh − R low)/ (1 + conc/A1)^A2, where R = percent response at and negative ionizable group, and hydrophobic region, inhibitor concentration, R = percent response with no was generated using the LigandScout application compound, R= percent response at highest compound high framework and projected into 3-D space. concentration, A2 = fitting parameter (slope) and A1 = low Feature-pairing IC50 (BIAevaluation Software version 4.1). […]

Data set [9] is described as follows: Maximum tolerated dose in mice. The note with it: mouse, in vivo.
In data set [10] the target is pSTAT3 (Homo sapiens, UniProt P40763). Description: pSTAT3 levels in UM-SCC-17B tumor xenografts (immunoblot). The note with it: UM-SCC-17B xenografts, C188 50 mg/kg/day. For orientation: A western blot detects proteins with antibodies after separation by electrophoresis.
Chain of pSTAT3 (Homo sapiens, UniProt P40763) (P40763 whole entry): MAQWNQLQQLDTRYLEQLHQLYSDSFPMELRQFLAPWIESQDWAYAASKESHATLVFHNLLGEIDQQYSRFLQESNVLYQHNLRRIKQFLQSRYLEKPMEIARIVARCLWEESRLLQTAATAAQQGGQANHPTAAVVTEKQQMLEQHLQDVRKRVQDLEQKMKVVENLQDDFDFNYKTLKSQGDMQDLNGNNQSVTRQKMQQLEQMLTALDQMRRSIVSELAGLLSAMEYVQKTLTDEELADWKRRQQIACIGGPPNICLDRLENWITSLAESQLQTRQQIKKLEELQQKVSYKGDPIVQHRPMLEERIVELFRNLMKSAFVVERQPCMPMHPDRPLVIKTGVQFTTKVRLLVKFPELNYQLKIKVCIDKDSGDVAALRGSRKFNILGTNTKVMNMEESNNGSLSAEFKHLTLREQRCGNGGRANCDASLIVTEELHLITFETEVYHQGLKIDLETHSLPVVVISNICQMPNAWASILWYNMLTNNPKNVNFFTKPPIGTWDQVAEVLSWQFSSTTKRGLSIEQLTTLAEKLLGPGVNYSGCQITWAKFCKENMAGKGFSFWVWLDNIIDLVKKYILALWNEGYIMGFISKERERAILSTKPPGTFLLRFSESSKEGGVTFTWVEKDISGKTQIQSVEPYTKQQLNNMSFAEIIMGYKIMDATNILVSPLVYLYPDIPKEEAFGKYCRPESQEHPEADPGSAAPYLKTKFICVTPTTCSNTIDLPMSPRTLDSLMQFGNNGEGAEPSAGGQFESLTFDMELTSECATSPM
Description: Tumor tissue was minced, homogenized and first), 50% PEG-400 (added second), 40% Saline (added proteins extracted using high-salt buffer, as described last) then vortexed and sonicated at concentration (10 mg/
C57BL/6 mice were provided in membrane (Millipore, Waltham, MA) and immunoblotted. triplicate, a single dose by body weight via either intra-Membranes were probed with antibody against peritoneal (IP) or oral (PO) route at 10 mg/kg at a volume STAT1 pY701 or STAT3 pY705 total STAT1 or STAT3 of 10 mL/kg and plasma samples collected as shown (Transduction labs, Lexington, KY) and β–actin (Abcam, in the study table below. At the indicated times, 3 mice Cambridge, MA). Membranes were stripped between per time point were euthanized per dose route and then
Data set [11] concerns the target T2, pSTAT1 (Tyr-701). Description: Phosphoflow, IFN-γ-induced pSTAT1 in Kasumi-1 cells. Type of data set: cell-based. How it is done:
(§3) The equilibrium binding levels obtained ± compound were normalized (resonance obtained in the presence of compound ÷ the resonance obtained in the absence of compound × 100) and plotted against Log [nM] […] B. Inhibition of ligand-stimulated STAT phosphorylation, measured by phosphoflow. Serum-starved (1 hour) Kasumi-1 cells, pre-incubated with compound/DMSO (1 hour), were treated with G-CSF (10 ng/ml, 15 min, left two panels) or IFN-γ (10ng/ml, 15 min, right panel). Cells were permeabilized and stained with Alexa647-pSTAT3, and PE-pSTAT1 antibodies and analyzed on BD LSR2. FCS files were uploaded to Cytobank for pSTAT3 and pSTAT1 quantitation. Histograms depicting pSTAT3 and pSTAT1 levels are shown. C. Mean fluorescence (pSTAT3/1) levels were plotted as function the Log [M] compound, and IC50 calculated using GraphPad. […] D. Inhibition of ligand-stimulated STAT phosphorylation, measured by Luminex. Serum-starved (1 hour) Kasumi-1 cells, pre-incubated with compound/DMSO (0/0.1/0.3/1/3/10/100 μM, 1 hour), were treated with G-CSF (10 ng/ml, 15′). Total protein extracts of cells were assayed for pSTAT3, pSTAT1, and GAPDH levels by Luminex. GAPDH-normalized pSTAT3 or pSTAT1 values were divided by this ratio for untreated cells and expressed in percentage. These values were plotted as a function of Log [M] compound, and IC50 values calculated using GraphPad.
as §1

Data set [12] has as its system UM-SCC-17B xenografts. Description: UM-SCC-17B tumor xenograft growth in nude mice. Conditions: IP 5 times a week, 50 mg/kg/day. In kind it is in vivo. As to the method: (§4) Tumor volumes were measured twice weekly.
as §4

Data set [13] addresses T3, pSTAT3 (Tyr-705) (Homo sapiens, UniProt P40763).
T3 construct: endogenous in cells; host or cells: Kasumi-1
Description: Phosphoflow, G-CSF-induced STAT3 phosphorylation in Kasumi-1 cells. Conditions: Kasumi-1, G-CSF 10 ng/ml 15 min; mean, n ≥ 2; read-out: Ligand Induced Phosphorylation (Phosphoflow) pSTAT3 (GCSF) IC50. In kind it is cell-based. As to the method:
as §3, §1

In data set [14] the test system is normal murine bone marrow colony formation. Description: Normal murine bone marrow colony formation. In kind it is cell-based. Conditions: studies not shown (Tweardy et al 2010, unpublished).
Data set [15] deals with T1, STAT3. Description: STAT3/pY-peptide binding surface plasmon resonance (SPR) assay. How it is done:
The equilibrium binding levels obtained ± compound were normalized (resonance obtained in the presence of compound ÷ the resonance obtained in the absence of compound × 100) and plotted against Log [nM] […] B. Inhibition of ligand-stimulated STAT phosphorylation, measured by phosphoflow. Serum-starved (1 hour) Kasumi-1 cells, pre-incubated with compound/DMSO (1 hour), were treated with G-CSF (10 ng/ml, 15 min, left two panels) or IFN-γ (10ng/ml, 15 min, right panel). Cells were permeabilized and stained with Alexa647-pSTAT3, and PE-pSTAT1 antibodies and analyzed on BD LSR2. FCS files were uploaded to Cytobank for pSTAT3 and pSTAT1 quantitation. Histograms depicting pSTAT3 and pSTAT1 levels are shown. C. Mean fluorescence (pSTAT3/1) levels were plotted as function the Log [M] compound, and IC50 calculated using GraphPad. […] D. Inhibition of ligand-stimulated STAT phosphorylation, measured by Luminex. Serum-starved (1 hour) Kasumi-1 cells, pre-incubated with compound/DMSO (0/0.1/0.3/1/3/10/100 μM, 1 hour), were treated with G-CSF (10 ng/ml, 15′). Total protein extracts of cells were assayed for pSTAT3, pSTAT1, and GAPDH levels by Luminex. GAPDH-normalized pSTAT3 or pSTAT1 values were divided by this ratio for untreated cells and expressed in percentage. These values were plotted as a function of Log [M] compound, and IC50 values calculated using GraphPad. […]
3-D pharmacophore sorting used to evaluate the effect of each compound on STAT3 binding. Responses were normalized by dividing the […]
fingerprint screening were converted into 3-D structures compounds at 2 min and multiplying by 100. IC values […]
as §2, with “4.1). The inhibition Each chemical feature was converted into distance constant (Ki) was derived from the Cheng-Prusoff bin and the complete set of distance bins used to construct equation Ki=IC50/(1+[C]/Kd) as used by Halling et al a cost matrix. The most favorable pairing based on cost where C stands for STAT3 concentration used in the SPR matrix was identified. assay and Kd denotes the dissociation constant for STAT3 3-D pharmacophore transformation binding to its phosphorylated EGFR ligand in the SPR” for “4.1).”
STAT3/pY-peptide binding assay and total protein extracted from cell pellets. […]
STAT3 binding assays were performed at 25 °C (Millipore, Danvers, MA) coupled to antibody against

T1 sequence (P40763 whole entry, species assumed): as the sequence (P40763 whole entry) above
T3 sequence (P40763 whole entry): as above

`COC(=O)[C@H](Cc1cn(C)cn1)NC(=O)[C@@H](NC(=O)Nc1cc(C(F)(F)F)cc(C(F)(F)F)c1)C(C)C` [XZH-5]: in data set [1], the IC50 (in general, the concentration at which inhibition is half-maximal) was 20 to 30 µM.

As to `O=[N+]([O-])c1ccc2c(c1)S(=O)(=O)C=C2` [Stattic], in data set [2], the IC50 was 5.1 µM.

`C[C@@H]1CC(=O)c2c(ccc3c2C(=O)c2cccc(O)c2C3=O)C1` [STA-21]: the IC50 in data set [3] is 12.2 to 18.7 µM.

As for `NS(=O)(=O)c1cccc2c1C(=O)c1cccc(O)c1C2=O` [LLL12], in [4], the half-maximal inhibitory concentration (IC50) was roughly 5 µM.

Turning to `O=C(O)CSc1cc(NS(=O)(=O)c2ccc(C(=O)O)cc2)c2ccccc2c1O` [Compound C188], the IC50 in data set [5] (mean, read-out: Anchorage dependent growth (MTT) IC50) came out at 6.3 ± 0.8 µM; in [5] (Figure 4B, read-out: Anchorage Dependent growth IC50, representative experiment), 5.7 µM; in [6], 40 µM; in data set [8], 21.9 µM; in data set [11] (Figure 2C, Kasumi-1, read-out: Phosphoflow pSTAT1 (Tyr-701) IC50, representative experiment), 23.4 µM. For the same compound, in data set [7], the EC50 (in general, the midpoint of the concentration-response curve) is 0.7 µM. The MTD (commonly the largest dose that counted as tolerated) at 14 days in data set [9] amounted to 100 mg/kg/day. The “Levels of pSTAT3 in tumors” value in [10] was “not reduced significantly”. Besides, the “Growth of established UM-SCC-17B xenograft tumors” value in [12] was “continued to grow”.

`CC(C)OC(=O)C(C(=O)C(F)(F)F)c1cc(NS(=O)(=O)c2ccc3c4c(cccc24)C(=O)N3)c2ccccc2c1O` (stereo not shown) [Compound C188-8]: the IC50 in [6] was determined as 23 µM; in data set [13] it was 3.4 ± 0.9 µM; in data set [11] (Kasumi-1, IFN-γ 10 ng/ml 15 min, mean, n ≥ 2, read-out: Ligand Induced Phosphorylation (Phosphoflow) pSTAT1 (IFN-γ) IC50) it was 35 ± 25.2 µM; in data set [15] (STAT3 200 nM, EGFR pY1068 dodecapeptide, mean, n ≥ 2, read-out: pY-Peptide Binding (SPR) IC50), 4.5 ± 2.1 µM. Also, in data set [14], the “Inhibition of normal murine bone marrow colony formation” value is “inhibited”. Besides, the “Inhibition of STAT3 binding to pY-peptide compared with C188” value in data set [15] (SPR) is on record as “improved inhibition”.

Source of the values: PMC5041982, “Small-molecule inhibition of STAT3 in radioresistant head and neck squamous cell carcinoma” (Oncotarget, 2016).
